Experiments:
[1] = system: partially purified peroxidase; assay: Oxidation of lignin substructure model compounds by partially purified peroxidase; assay type: biochemical, Streptomyces viridosporus T7A; settings: 0.02% (wt/vol) model compound, hydrogen peroxide, pH 5.5, 37° C., 18 hours
Description: The model compounds were added to reaction mixtures at a final concentration of 0.02% (wt/vol). Reactions were carried out in a total volume of 3.0 ml, containing 0.1 mM hydrogen peroxide or a peroxide generating system consisting of 0.02 units/ml of glucose oxidase (Sigma) and 3 mM glucose 0.1M sodium tartrate buffer (pH 5.5) and 300 μl of enzyme preparation. Control reactions were performed with boiled enzyme preparation. Some reaction mixtures were flushed with oxygen and all were incubated at 37° C. for 18 hours on a shaker in slanting tubes. The reaction mixtures were then acidified to pH 2-3 with 12M HCl and extracted once with ether and once with ethyl acetate. […]
HPLC was performed on a Hewlett-Packard 1090A high pressure liquid chromatograph employing a HP-1040A diode array detector. During each run, chromatograms for 258, 280, and 310 nm were recorded and the ultraviolet (UV) absorbance spectrum (250-350 nm) of each peak was recorded at its front side, apex, and trailing side. […]
Only veratraldehyde, anisaldehyde and vanillin were detected by HPLC, GC, and GC/MS. Guaiacol, formed in trace amounds, was detected by HPLC, GC, and GC/MS. Small amounts of products (IV) and (V) were detected only by MS fragmentation. […]

[2] = system: Peroxidase P3
[3] = system: Peroxidase P3; settings: inhibitor at final concentration lmM

| Oxidation of the model compound by the peroxidase (bond cleaved) [1] | Structure (SMILES) | Inhibition of the enzyme (2,4-DCP and L-DOPA oxidizing activities), in words ([2]; 1 mM concentration) | % inhibition of peroxidase P3 activity, substrate 2,4,-DCP ([2]; inhibitor at final concentration lmM) | Specific activity, substrate 2,4,-DCP, with inhibitor ([2]; inhibitor at final concentration lmM, partially purified P3) | % inhibition of peroxidase P3 activity, substrate L-DOPA [3] | Specific activity, substrate L-DOPA, with inhibitor ([3]; partially purified P3) |
| --- | --- | --- | --- | --- | --- | --- |
| cleaved at the Cα -Cβ bond | COc1ccc(C(O)C(CO)Oc2ccccc2OC)cc1OC (stereo not shown) [I, 1-(3,4-Dimethoxyphenyl)-2-(2-methoxyphenoxy)propane-1,3-diol] |  |  |  |  |  |
| cleaved between the Cαand Cβcarbons | COc1ccc(C(=O)Cc2ccccc2)cc1 [III, 1-(4-methoxyphenyl)-2-(phenyl)ethan-1-one] |  |  |  |  |  |
|  | [N-]=[N+]=[N-] [sodium azide] | inhibited | 83% | 0.18 Units/mg protein | 41% | 0.18 Units/mg protein |
